Assay results as given in US9393316B2, “Cancer targeting peptides for enhancing anti-cancer drug delivery and therapeutic efficiencies” (priority 2014, dated 2016).
One block for each compound: values may come before it.

Tests used:
colorectal cancer = experiment: Cytotoxicity of several anticancer drugs; assay type: cell-based; details: compared with other colon and rectal cancer drugs approved by the FDA
HCT116 cells [1] = experiment: ELISA screening of phage clones on HCT116 cells (cellular ELISA); assay type: binding, human; details: HCT116, cell line panel
Method: (§1) The selected phages were further identified by ELISA screening. 1×10^4 cells were seeded into each well of 96-well ELISA plates (Falcon, Calif., USA) overnight and were fixed with 2% paraformaldehyde or methanol/acetone (1:1) for 10 min at RT. The plates were washed twice with PBS and were blocked with 1% BSA in PBS (w/v) for 30 min at RT. Then individual phage clones were added and incubated for 1 hr at RT. Following washing three times with PBS, the plates were incubated with horseradish peroxidase (HRP)-conjugated mouse anti-M13 phage antibody (GE Healthcare) at 1:2000 dilution for 1 hr at RT. The plates were washed three times with PBS again, and were subsequently incubated with the peroxidase substrate o-phenylenediamine dihydrochloride (OPD; Sigma) plus H2O2. The reaction was terminated by 3 N HCl, and the absorbance was measured using microplate reader (Model 680, BioRad) at 490 nm.

COLO205 = experiment: Flow cytometry surface binding of phage clones; set-up: species or system human
Method: (§2) Cells were grown to 70-80% confluence and were harvested with 10 mM EDTA in PBS. Peripheral blood mononuclear cells were prepared by using Ficoll-Paque Plus density gradient separation. After washing and suspending the cells with FACS buffer (PBS containing 1% fetal bovine serum), the cells were incubated for 1 hr at 4° C. with 5×10^9, 1×10^9 cfu individual phage clones or control phage, respectively. After washing twice with FACS buffer, cells were incubated with mouse anti-M13 monoclonal antibody (GE Healthcare) at 1:2000 dilution for 1 hr followed by 30 min with phycoerythrin (PE)-conjugated goat anti-mouse secondary antibody (Jackson ImmunoResearch) at 1:250 dilution at 4° C. The emission fluorescence signals were measured using FACSCantoll (Becton Dickinson) and were analyzed by FlowJo software.

HCT116 cells [2] = experiment: Flow cytometry surface binding of phage clones; set-up: species or system human
Method: as §2

HT29 = experiment: Flow cytometry surface binding of phage clones; set-up: species or system human
Method: as §2

LS174T = experiment: Flow cytometry surface binding of phage clones; set-up: species or system human
Method: as §2

SW620 = experiment: Flow cytometry surface binding of phage clones; set-up: species or system human
Method: as §2

[3] = system: peripheral blood mononuclear cells (PBMC); experiment: Flow cytometry binding of phage clones to normal cells; details: human PBMC
Method: as §2

HCT116 xenografts [4] = experiment: In vivo tumor homing, phage titer in tumor and organs; set-up: species or system mice; details: 2×10^11 pfu i.v., PBS perfusion; vs brain, lungs, heart
Method: (§3) Non-obese diabetic-severe combined immunodeficiency (NOD/SCID) mice were injected subcutaneously (s.c.) into the dorsolateral flank with 5×10^6 HCT116 cells. When the xenograft tumor size reached 300±50 mm^3, the mice were injected intravascularly (i.v.) with 2×10^11 pfu of the targeting phage or control phage M13KO7. Seven min after injection, the mice were sacrificed and perfused through the heart with 50 mL of PBS to wash unbound phages. After perfusion, xenograft tumor and mouse organs were taken out, washed three times with cold PBS, and cut into pans, with some of them homogenized. The phages bound to each tissue sample were recovered by log-phase Escherichia coli ER2738 culture and were titered on LB/IPTG/X-Gal agar plates. In peptide competitive inhibition experiments, 2×10^9 pfu of phage was co-injected with 100 μg of corresponding peptide or an unrelated control peptide.
To investigate the targeting ability of the selected phage clones in vivo, mice bearing HCT116 xenografts (300 mm^3) were injected with 2×10^11 pfu of either the selected phages or control phage through the tail vein. Phages were circulated and then were perfused with PBS buffer to wash out non-specific binders in circulation. After perfusion, we recovered and determined the […] of phage in tumor masses and normal organs.

HCT116 xenografts [5] = experiment: Immunohistochemical localization of phages in xenograft tumor and organs; assay type: in vivo, mice; details: tumor vs brain, heart, lungs, colon
Method: The tissue samples from in vivo phage homing experiment were embedded in frozen blocks. To evaluate the phage distribution in each tissue by immunohistochemistry, the frozen specimens were cut to 8-μm-thick sections and were collected on coated slides. The slides were washed with cold PBS to remove OCT and were fixed with 4% paraformaldehyde for 10 min at RT. To block endogenous peroxidase activity, the slides were soaked with 3% hydrogen peroxide in methanol for 30 min at RT. The nonspecific antibody binding sites were blocked by immersing the section with 1% BSA in PBS for 30 min at RT. The tissue sections were incubated with mouse anti-M13 monoclonal antibody at 1:250 dilution for 1 hr, followed by adding Super Enhancer reagent (Super SENSITIVE™ Polymer HRP Detection System/DAB, BioGenex) for 20 min and Poly-HRP reagent (BioGenex) for 30 min. After washing, the sections were developed with DAB (3,3′-diaminobenzidine) Chromogen (BioGenex) supplemented with Stable DAB buffer. The reaction was stopped by adding PBS. For nuclei staining, the slides were immersed in hematoxylin for 5 min, and were then mounted with mounting solution to terminate the reaction. The images of sections were taken and analyzed using automated acquisition system (TissueGnostics).

1112SK = experiment: Cellular ELISA of phage clones; assay type: binding, human
Method: as §1, with “nm. To evaluate the binding activities of the three selected phage clones to various human cancer cell lines, cellular ELISA was performed to detect sixteen types of human cancer cell lines, including A498, HTB-10, B16-F10, SKOV3, PC-3, U2OS, 1112SK, […], SAS, H460, MIA Paca-2, HCT116, HUVAC, CL1-5, Mahlavu, and MDA-MB-231.” for “nm.”

A498 = experiment: Cellular ELISA of phage clones; assay type: binding, human
Method: as §1, with “nm. To evaluate the binding activities of the three selected phage clones to various human cancer cell lines, cellular ELISA was performed to detect sixteen types of human cancer cell lines, including A498, HTB-10, B16-F10, SKOV3, PC-3, U2OS, 1112SK, […], SAS, H460, MIA Paca-2, HCT116, HUVAC, CL1-5, Mahlavu, and MDA-MB-231.” for “nm.”

CL1-5 = experiment: Cellular ELISA of phage clones; assay type: binding, human
Method: as §1, with “nm. To evaluate the binding activities of the three selected phage clones to various human cancer cell lines, cellular ELISA was performed to detect sixteen types of human cancer cell lines, including A498, HTB-10, B16-F10, SKOV3, PC-3, U2OS, 1112SK, […], SAS, H460, MIA Paca-2, HCT116, HUVAC, CL1-5, Mahlavu, and MDA-MB-231.” for “nm.”

H184 = experiment: Cellular ELISA of phage clones; assay type: binding, human
Method: as §1, with “nm. To evaluate the binding activities of the three selected phage clones to various human cancer cell lines, cellular ELISA was performed to detect sixteen types of human cancer cell lines, including A498, HTB-10, B16-F10, SKOV3, PC-3, U2OS, 1112SK, […], SAS, H460, MIA Paca-2, HCT116, HUVAC, CL1-5, Mahlavu, and MDA-MB-231.” for “nm.”

H460 = experiment: Cellular ELISA of phage clones; assay type: binding, human
Method: as §1, with “nm. To evaluate the binding activities of the three selected phage clones to various human cancer cell lines, cellular ELISA was performed to detect sixteen types of human cancer cell lines, including A498, HTB-10, B16-F10, SKOV3, PC-3, U2OS, 1112SK, […], SAS, H460, MIA Paca-2, HCT116, HUVAC, CL1-5, Mahlavu, and MDA-MB-231.” for “nm.”

HUVAC = experiment: Cellular ELISA of phage clones; assay type: binding, human
Method: as §1, with “nm. To evaluate the binding activities of the three selected phage clones to various human cancer cell lines, cellular ELISA was performed to detect sixteen types of human cancer cell lines, including A498, HTB-10, B16-F10, SKOV3, PC-3, U2OS, 1112SK, […], SAS, H460, MIA Paca-2, HCT116, HUVAC, CL1-5, Mahlavu, and MDA-MB-231.” for “nm.”

MDA-MB-231 = experiment: Cellular ELISA of phage clones; assay type: binding, human
Method: as §1, with “nm. To evaluate the binding activities of the three selected phage clones to various human cancer cell lines, cellular ELISA was performed to detect sixteen types of human cancer cell lines, including A498, HTB-10, B16-F10, SKOV3, PC-3, U2OS, 1112SK, […], SAS, H460, MIA Paca-2, HCT116, HUVAC, CL1-5, Mahlavu, and MDA-MB-231.” for “nm.”

MIA Paca-2 = experiment: Cellular ELISA of phage clones; assay type: binding, human
Method: as §1, with “nm. To evaluate the binding activities of the three selected phage clones to various human cancer cell lines, cellular ELISA was performed to detect sixteen types of human cancer cell lines, including A498, HTB-10, B16-F10, SKOV3, PC-3, U2OS, 1112SK, […], SAS, H460, MIA Paca-2, HCT116, HUVAC, CL1-5, Mahlavu, and MDA-MB-231.” for “nm.”

Mahlavu = experiment: Cellular ELISA of phage clones; assay type: binding, human
Method: as §1, with “nm. To evaluate the binding activities of the three selected phage clones to various human cancer cell lines, cellular ELISA was performed to detect sixteen types of human cancer cell lines, including A498, HTB-10, B16-F10, SKOV3, PC-3, U2OS, 1112SK, […], SAS, H460, MIA Paca-2, HCT116, HUVAC, CL1-5, Mahlavu, and MDA-MB-231.” for “nm.”

PC-3 = experiment: Cellular ELISA of phage clones; assay type: binding, human
Method: as §1, with “nm. To evaluate the binding activities of the three selected phage clones to various human cancer cell lines, cellular ELISA was performed to detect sixteen types of human cancer cell lines, including A498, HTB-10, B16-F10, SKOV3, PC-3, U2OS, 1112SK, […], SAS, H460, MIA Paca-2, HCT116, HUVAC, CL1-5, Mahlavu, and MDA-MB-231.” for “nm.”

SAS = experiment: Cellular ELISA of phage clones; assay type: binding, human
Method: as §1, with “nm. To evaluate the binding activities of the three selected phage clones to various human cancer cell lines, cellular ELISA was performed to detect sixteen types of human cancer cell lines, including A498, HTB-10, B16-F10, SKOV3, PC-3, U2OS, 1112SK, […], SAS, H460, MIA Paca-2, HCT116, HUVAC, CL1-5, Mahlavu, and MDA-MB-231.” for “nm.”

SKOV3 = experiment: Cellular ELISA of phage clones; assay type: binding, human
Method: as §1, with “nm. To evaluate the binding activities of the three selected phage clones to various human cancer cell lines, cellular ELISA was performed to detect sixteen types of human cancer cell lines, including A498, HTB-10, B16-F10, SKOV3, PC-3, U2OS, 1112SK, […], SAS, H460, MIA Paca-2, HCT116, HUVAC, CL1-5, Mahlavu, and MDA-MB-231.” for “nm.”

U2OS = experiment: Cellular ELISA of phage clones; assay type: binding, human
Method: as §1, with “nm. To evaluate the binding activities of the three selected phage clones to various human cancer cell lines, cellular ELISA was performed to detect sixteen types of human cancer cell lines, including A498, HTB-10, B16-F10, SKOV3, PC-3, U2OS, 1112SK, […], SAS, H460, MIA Paca-2, HCT116, HUVAC, CL1-5, Mahlavu, and MDA-MB-231.” for “nm.”

B16-F10 = experiment: Cellular ELISA of phage clones; assay type: binding, mouse
Method: as §1, with “nm. To evaluate the binding activities of the three selected phage clones to various human cancer cell lines, cellular ELISA was performed to detect sixteen types of human cancer cell lines, including A498, HTB-10, B16-F10, SKOV3, PC-3, U2OS, 1112SK, […], SAS, H460, MIA Paca-2, HCT116, HUVAC, CL1-5, Mahlavu, and MDA-MB-231.” for “nm.”

HCT116 xenografts [6] = experiment: In vivo peptide competitive inhibition of phage tumor homing; set-up: species or system mice; details: co-injected with corresponding phage clone
Method: as §3
The tumor-homing ability of HCT63, HCT69 and HCT74 phages were further confirmed by peptide competitive inhibition experiment. Mice bearing HCT116 xenografts were co-injected with HCT63, HCT69 and HCT74 phages clones and the homologous cognate synthetic peptide; pHCT63, pHCT69 and pHCT74 peptides (SEQ ID NOs: 1-3, respectively), respectively.

Compound: CCC1=C[C@@H]2CN(C1)Cc1c([nH]c3ccccc13)[C@@](C(=O)OC)(c1cc3c(cc1OC)N(C)[C@H]1[C@@](O)(C(=O)OC)[C@H](OC(C)=O)[C@]4(CC)C=CCN5CC[C@]31[C@@H]54)C2 [Vinorelbine, vinorelbine]
cytotoxicity profile (colorectal cancer): significantly better cytotoxicity profiles

binding activity by FACS (COLO205): moderately
binding activity by FACS (HT29): reacted strongly
binding activity by FACS (LS174T): reacted strongly
binding activity by FACS (SW620): reacted strongly
binding by cellular ELISA (1112SK): high binding specificity
binding by cellular ELISA (A498): high binding specificity
binding by cellular ELISA (CL1-5): high binding specificity
binding by cellular ELISA (H184): high binding specificity
binding by cellular ELISA (H460): high binding specificity
binding by cellular ELISA (HUVAC): high binding specificity
binding by cellular ELISA (MDA-MB-231): high binding specificity
binding by cellular ELISA (MIA Paca-2): high binding specificity
binding by cellular ELISA (Mahlavu): high binding specificity
binding by cellular ELISA (PC-3): high binding specificity
binding by cellular ELISA (SAS): high binding specificity
binding by cellular ELISA (SKOV3): high binding specificity
binding by cellular ELISA (U2OS): high binding specificity
binding by cellular ELISA (B16-F10): high binding specificity
Compound: RLNLDIIAVTSV [HCT63]
binding by cellular ELISA (HCT116 cells [1]): high binding specificity
cell surface-binding activity by flow cytometry (HCT116 cells [2]): reacted strongly
binding activity to PBMC (normal cells) by FACS [3]: not to normal cells
phage accumulation in tumor mass vs normal organs (phage titer) (HCT116 xenografts [4]): significantly accumulated in the tumor mass
phage localization by immunostaining of tissue sections (HCT116 xenografts [5]): selectively localized in tumor tissues
phage localization by immunostaining of tissue sections (HCT116 xenografts [5]; listed as HCT-63): strong accumulated in the tumor

Compound: TSVSIVSTVLTP (HCT-69) [pHCT69]
inhibition of phage recovery from tumor tissue by cognate peptide (HCT116 xenografts [6]): markedly inhibited the recovery of phage particles from tumor tissue

Compound: RLNLDIIAVTSV (HCT-63) [pHCT63]
inhibition of phage recovery from tumor tissue by cognate peptide (HCT116 xenografts [6]): markedly inhibited the recovery of phage particles from tumor tissue
